Laboratory results reported in patent US20230242641A1, “SLAMF7 CARS” (JULIUS-MAXIMILIANS-UNIVERSITÄT WÜRZBURG, priority 2020, published 2023).
Where two headings read alike, the source gives them in different places.

Columns and labels:
MM.1S cells = settings: cited from earlier work
SLAMF7 = settings: cited from earlier work
[1] = tested on: CD34+ hematopoietic stem cells; settings: cited from earlier work
multiple myeloma = settings: cited from earlier work
CAR-T cell-induced CRS = settings: 45 pediatric and adult patients; 31 patients; 95% CI: 53%-82%; cited from earlier work
[2] = target: T1, mouse SLAMF7 molecule linked to a Twin-Strep Tag (mice, UniProt Q8BHK6 23-224, limits assumed); assay: flow cytometry: LV-RP cells incubated with Twin-Strep tagged SLAMF7 of different species, stained with anti-Strep Tag antibody (FIG. 37)
T1 construct: also called SLAMF7 of mice; not shown: Twin-Strep Tag
From the text: SLAMF7 molecules linked to a Twin-Strep Tag were stained by an anti-Strep Tag antibody.

CC(C)C[C@H](NC(=O)[C@H](Cc1ccccc1)NC(=O)c1cnccn1)B(O)O [Bortezomib]
eradication of MM.1S (MM.1S cells; after 72 hours of treatment): less than 30%

Nc1cccc2c1CN(C1CCC(=O)NC1=O)C2=O (stereo not drawn) [Lenalidomide]
eradication of MM.1S (MM.1S cells; after 72 hours of treatment): about 40%

N[C@@H](Cc1ccc(N(CCCl)CCCl)cc1)C(=O)O [Melphalan]
eradication of MM.1S (MM.1S cells; after 48 hours of treatment): less than 40%

Elotuzumab: SLAMF7-specific monoclonal antibody huLuc63
eradication of MM.1S (MM.1S cells; after 72 hours of treatment): less than 70%
species cross-reactivity (SLAMF7): lack of species cross-reactivity
binding to CD34+ hematopoietic stem cells [1]: No binding
interim overall survival rate (multiple myeloma; after three years): 60%
rate of progression-free survival (multiple myeloma; at one year after beginning of treatment, elotuzumab group vs control group (only Lenalidomid and dexmethason)): 68%
infection rate compared to the control group (multiple myeloma; in vivo): No significant increase in the infection rate
lymphocyte reduction after the initial infusion (multiple myeloma; in vivo): 77%

tocilizumab: recombinant humanized monoclonal antibody that blocks IL-6 from binding to its receptor
patients achieving a response (resolution of CRS within 14 days of the first dose) (CAR-T cell-induced CRS): 69%

B1: SLAMF7 binding chimeric antigen receptor (CAR) polypeptide, expressed on human T cells (other)
chain: EVQLVESGGGLVQPGGSLRLSCAASGFDFSRYWMSWVRQAPGKGLEWIGEINPDSSTINYAPSLKDKFIISRDNAKNSLYLQMNSLRAEDTAVYYCARPDGNYWYFDVWGQGTLVTVSSGGGGSGGGGSGGGGSDIQMTQSPSSLSASVGDRVTITCKASQDVGIAVAWYQQKPGKVPKLLIYWASTRHTGVPDRFSGSGSGTDFTLTISSLQPEDVATYYCQQYSSYPYTFGQGTKVEIKESKYGPPCPPCPAPPVAGPSVFLFPPKPKDTLMISRTPEVTCVVVDVSQEDPEVQFNWYVDGVEVHNAKTKPREEQFQSTYRVVSVLTVLHQDWLNGKEYKCKVSNKGLPSSIEKTISKAKGQPREPQVYTLPPSQEEMTKNQVSLTCLVKGFYPSDIAVEWESNGQPENNYKTTPPVLDSDGSFFLYSRLTVDKSRWQEGNVFSCSVMHEALHNHYTQKSLSLSLGKMFWVLVVVGGVLACYSLLVTVAFIIFWVRSKRSRGGHSDYMNMTPRRPGPTRKHYQPYAPPRDFAAYRSRVKFSRSADAPAYQQGQNQLYNELNLGRREEYDVLDKRRGRDPEMGGKPRRKNPQEGLYNELQKDKMAEAYSEIGMKGERRRGKGHDGLYQGLSTATKDTYDALHMQALPPR
notes: also called SLAMF7 CAR; SLAMF7-CAR
binding result [2]: no binding
